Measured values: patent US20040086553A1, “Foods and beverages for whitening and orally administered whitening agents” (The Nisshin OilliO, Ltd., priority 2000, published 2004)
Read-outs that look alike come from different tables or passages of the source.

System: B-16 melanoma cells
Test: Evaluation of melanin production-inhibitory function (degree of whiteness of cultured cells); on Evaluation of Melanin Production-Inhibition (degree of whiteness of cells): key: ++: The degree of whiteness is higher than that observed for the positive control; +: The degree of whiteness is almost identical to that of the positive control; ±: The degree of whiteness is not higher than that observed for the positive control, but higher than that observed for control; −: The degree of whiteness is almost identical to that observed for the control
Type: cell-based
Conditions: for melanin production-inhibitory function relative to that observed for the positive control/standard: compared with 450 ppm of vitamin C-magnesium phosphate
From the text: The melanin production-inhibitory function of the 5-membered ring-containing triterpenes incorporated into the foods or beverages and orally administered whitening agents of the present invention can be determined by a test method, which makes use of cultured melanocytes. The term “melanocyte(s)” used herein means cells having an ability of producing melanin and when cultivating these cells in the usual manner, the cells are blackened due to the accumulation of melanin pigment thus produced. Contrary to this, if a substance having such a melanin production-inhibitory function is incorporated into this cultivation system, the melanin production is suppressed and the skin is relatively whitened. The melanin production-inhibitory function can likewise be evaluated on the basis of this degree of relative whitening.
A culture medium (2 mL/well) was dispensed to a 6-well plate, a predetermined amount of B-16 melanoma cells was inoculated into the culture medium in each well and the cells were cultured at 37° C. and 5% CO2 by allowing the culture medium to stand. On the next day, a solution of test sample (each 5-membered ring-containing triterpene to be evaluated) having a predetermined concentration was added to and mixed with the culture medium and the cultivation was continued. On the 5th day from the initiation of the cultivation, the culture medium was exchanged and the test sample solution was again added to each well. On the next day, the culture medium was removed from each well to thus recover the cells, followed by washing the cells with PBS (phosphate-buffered physiological saline) and evaluation of the desired function based on the degree of whiteness of the cells. In this connection, the melanin production-inhibitory effect was evaluated by comparing the resulting degree of whiteness with that observed when 450 ppm of vitamin C-magnesium phosphate having a known effect was added instead of the test sample solution (positive control) and that observed when any test sample was not added (control) according to the following criteria.
The evaluation criteria for the degree of whiteness of cells are as follows: […]

[1] = Concentration 2 ppm, rank vs 450 ppm vitamin C-magnesium phosphate
[2] = Concentration 4 ppm, rank vs 450 ppm vitamin C-magnesium phosphate
[3] = Concentration 6 ppm, rank vs 450 ppm vitamin C-magnesium phosphate
[4] = Concentration 8 ppm, rank vs 450 ppm vitamin C-magnesium phosphate
[5] = Concentration 10 ppm, rank vs 450 ppm vitamin C-magnesium phosphate
[6] = Concentration 15 ppm, rank vs 450 ppm vitamin C-magnesium phosphate
[7] = Concentration 25 ppm, rank vs 450 ppm vitamin C-magnesium phosphate
[8] = Concentration 50 ppm, rank vs 450 ppm vitamin C-magnesium phosphate

Row | Compound | Evaluation of Melanin Production-Inhibition (degree of whiteness of cells) | Evaluation of Melanin Production-Inhibition (degree of whiteness of cells) [1] | Evaluation of Melanin Production-Inhibition (degree of whiteness of cells) [2] | Evaluation of Melanin Production-Inhibition (degree of whiteness of cells) [3] | Evaluation of Melanin Production-Inhibition (degree of whiteness of cells) [4] | Evaluation of Melanin Production-Inhibition (degree of whiteness of cells) [5] | Evaluation of Melanin Production-Inhibition (degree of whiteness of cells) [6] | melanin production-inhibitory function relative to that observed for the positive control/standard | Evaluation of Melanin Production-Inhibition (degree of whiteness of cells) [7] | Evaluation of Melanin Production-Inhibition (degree of whiteness of cells) [8] | Evaluation of Melanin Production-Inhibition (degree of whiteness of cells) (Concentration 100 ppm, rank vs 450 ppm vitamin C-magnesium phosphate) | Evaluation of Melanin Production-Inhibition (degree of whiteness of cells) (Concentration 200 ppm, rank vs 450 ppm vitamin C-magnesium phosphate) | Evaluation of Melanin Production-Inhibition (degree of whiteness of cells) (Concentration 300 ppm, rank vs 450 ppm vitamin C-magnesium phosphate) | Evaluation of Melanin Production-Inhibition (degree of whiteness of cells) (Concentration 450 ppm, rank vs 450 ppm vitamin C-magnesium phosphate)
1 | CC1(C)CC[C@]2(C(=O)O)CC[C@]3(C)C(=CC[C@@H]4[C@@]5(C)C[C@@H](O)[C@H](O)C(C)(C)[C@@H]5CC[C@]43C)[C@@H]2C1 [Purified maslinic acid 3, maslinic acid] | ± and + and ++ |  |  |  |  |  |  |  |  |  |  |  |  | 
2 | 2,3-O-di-Stearoyl-Maslinic Acid Ethyl Ester [Compound of Synthetic Example 4] |  | ± | ± | + | ++ | ++ | ++ | about 75 times |  |  |  |  |  | 
3 | CCOC(=O)[C@]12CC[C@@H](C)[C@H](C)[C@H]1C1=CC[C@@H]3[C@@]4(C)CC[C@H](O)C(C)(C)[C@@H]4CC[C@@]3(C)[C@]1(C)CC2 [Compound of Synthetic Example 6, Ursolic Acid Ethyl Ester] |  | ± | + | ++ | ++ | ++ |  | about 110 times |  |  |  |  |  | 
4 | O=c1cc(CO)occ1O [Kojic acid, reference compound] |  |  |  |  |  | − | − |  | − | ± | ± | + | ++ | ++
5 | CC(=O)OC[C@]12CC[C@@H](C)[C@H](C)[C@H]1C1=CC[C@@H]3[C@@]4(C)CC[C@H](OC(C)=O)C(C)(C)[C@@H]4CC[C@@]3(C)[C@]1(C)CC2 [Compound of Synthetic Example 7, 3,28-O-di-Acetyl-Uvaol] |  | − |  | − |  | ± |  | about 20 times | + | + |  |  |  | 
6 | C=C(C)[C@@H]1CC[C@]2(C(=O)OCC)CC[C@]3(C)[C@H](CC[C@@H]4[C@@]5(C)CC[C@H](O)C(C)(C)[C@@H]5CC[C@]43C)[C@@H]12 [Compound of Synthetic Example 8, Betulinic Acid Ethyl Ester] |  | − |  | ± |  | ± |  | about 20 times | + | + |  |  |  | 
7 | CC(=O)OCC12CCC(C)(C)CC1C1=CCC3C4(C)CCC(OC(C)=O)C(C)(C)C4CCC3(C)C1(C)CC2 (stereo not shown) [Compound of Synthetic Example 5, 3,28-O-di-Acetyl-Erythrodiol] |  | − |  | ± |  | ± |  | about 20 times | + | + |  |  |  | 
